Test results reported in patent publication US6335350B1, “Acetamide and substituted acetamide-containing thiourea inhibitors of herpes viruses” (American Home Products Corporation, priority 1998, dated 2002).
In brackets after ≈: the same amount, converted by molar mass.

Assays:
HCMV wild-type = assay: HCMV yield assay; type: cell-based, human cytomegalovirus; conditions: Human betaherpesvirus 5, Fibroblast, human foreskin fibroblasts; read-out: IC50 Ug/ml HCMV
Procedure: Yield assay. Monolayer cultures of human foreskin fibroblasts are infected with HCMV wild-type, typically at a multiplicity of infection equal to 0.2, in the presence of inhibitor compound (varying concentrations). At three days post-infection, total virus produced in these cultures (i.e. virus yield) is assessed by harvesting and titering the virus in 12-well plates of cultured human foreskin fibroblasts (done in the absence of inhibitor). Plaques are quantified at 2 weeks post-infection. An inhibitor of HCMV is identified by the reduction in titer of virus yield in the presence, compared to the titer in the absence of compound. In this assay, the relative anti-HCMV activity of an inhibitor is typically determined by calculating the IC50 or IC90 value, that is, the amount of compound required to reduce the virus yield by 50% or 90%, respectively. Table I describes IC50 data for compounds tested against HCMV.

HSV-1 = assay: HSV Antiviral (ELISA) Assay; type: cell-based, herpes simplex virus type 1; conditions: Human alphaherpesvirus 1, Vero, Vero cells, HSV-1; read-out: IC50 Ug/ml HSV
Procedure: Vero cells (ATCC #CCL-81) are plated on 96-well tissue culture plates at 3.5×10^4 cells per 100 μl tissue culture DMEM (Dulbecco's modified Eagle media) supplemented with 2% fetal bovine serum (FBS) in each well. After overnight incubation @ 37° C. (in 5% CO2) and 30 minutes prior to infection with HSV-1 (multiplicity of infection equal to 0.006), cells are either untreated, or treated with test compound (multiple concentrations) or reference standard drug control. After approximately 24 hours post-infection incubation @ 37° C. (in 5% CO2), cells are fixed for ELISA assay. The primary antibody is murine anti-HSV glycoprotein D monoclonal primary antibody and the secondary antibody is goat anti-mouse IgG linked to β-galactosidase. Thus the extent of viral replication is determined by assessing β-galactosidase activity by quantifying the generation of the 4-methyl umbelliferone fluorescent cleavage product after addition of the methyl umbelliferyl-β-D-galactoside (Sigma #M1633) substrate on a microfluorimeter (365 nm for excitation and 450 nm for emission). Antiviral activity (IC50) of the test compound is determined by comparing the flourescence obtained in absence of compound to that obtained in the presence of compound.

VZV strain Ellen = assay: VZV Antiviral (ELISA) Assay; type: cell-based, varicella-zoster virus; conditions: Human alphaherpesvirus 3, Fibroblast, human foreskin fibroblast cells; for IC50: read-out: IC50 Ug/ml VZV; for inhibition at 10 µg/mL: read-out: % inhibition 10 ug/ml VZV, 10 ug/ml
Procedure: For the generation of stock VZV to be used in the assay, VZV strain Ellen (ATCC #VR-1367) is used to infect human foreskin fibroblast (HFF) cells at low multiplicity (less than 0.1) and incubated overnight at 37° C. in 5% CO2. After the overnight incubation, the mixture of uninfected and VZV-infected HFF infected cells are then harvested and added to each well of 96-well plates (3.5×10^4 cells in 100 μl DMEM supplemented with 2% FBS) which contain test compound or the reference standard drug control (in 100 μl DMEM supplemented with 2% FBS per well). These cells are incubated for three days at 37° C. in 5% CO2, then fixed for ELISA assay. The primary antibody is murine anti-VZV glycoprotein II monoclonal antibody (Applied Biosystems, Inc. #13-145-100) and the secondary antibody is goat anti-mouse IgG linked to β-galactosidase. Thus the extent of viral replication is determined by assessing β-galactosidase activity by quantifying the generation of the 4-methyl umbelliferone fluorescent cleavage product after addition of the methyl umbelliferyl-β-D-galactoside (Sigma #M1633) substrate on a microfluorimeter (365 nm for excitation and 450 nm for emission). Antiviral activity (IC50) of the test compound is determined by comparing the flourescence obtained in absence of compound to that obtained in the presence of compound.

Structure (SMILES)	IC50 (HCMV wild-type)	IC50 (HSV-1)	IC50 (VZV strain Ellen)	inhibition at 10 µg/mL (VZV strain Ellen)
CC(=O)Nc1ccc(NC(=S)Nc2ccc(NC(C)=O)c(Cl)c2)cc1 [Example 312, N-{4-[3-(4-Acetylamino-phenyl)-thioureido]-2-chloro-phenyl}-acetamide]	50 µg/mL (≈ 133 µM)	50 µg/mL (≈ 133 µM)	> 10 µg/mL	22%
COc1cc(OC)c(NC(=S)Nc2ccc(NC(C)=O)cc2C#N)cc1Cl [Example 383, N-{4-[3-(5-Chloro-2,4-dimethoxy-phenyl)-thioureido]-3-cyano-phenyl}-acetamide]	> 10 µg/mL	> 10 µg/mL	> 10 µg/mL	38%
CC(=O)Nc1ccc(NC(=S)Nc2ccc(N(C)CC(C)C)c(Cl)c2)cc1 [Example 907, N-(4-{3-[3-Chloro-4-(isobutyl-methyl-amino)-phenyl]-thioureido}-phenyl)-acetamide]	3 µg/mL (≈ 7.41 µM)	> 10 µg/mL	> 10 µg/mL	19%
CCCCOc1cc(OC)c(Cl)cc1NC(=S)Nc1ccc(NC(C)=O)cc1 [Example 833, N-{4-[3-(2-Butoxy-5-chloro-4-methoxy-phenyl)-thioureido]-phenyl}-acetamide]	> 10 µg/mL	7 µg/mL (≈ 16.6 µM)	> 10 µg/mL	54%
COc1cc(N2CCOCC2)c(NC(=S)Nc2ccc(NC(C)=O)cc2)cc1Cl [Example 226, N-{4-[3-(5-Chloro-4-methoxy-2-morpholin-4-yl-phenyl)-thioureido]-phenyl}-Acetamide]	> 50 µg/mL	> 50 µg/mL	> 10 µg/mL	35%
CC(=O)Nc1ccc(NC(=S)Nc2ccc(Cl)c(Cl)c2)cc1 [Example 901, N-{4-[3-(3,4-Dichloro-phenyl)-thioureido]-phenyl}-acetamide]	2.5 µg/mL (≈ 7.06 µM)	1.5 µg/mL (≈ 4.23 µM)	> 10 µg/mL	1%
COc1cc(OC)c(NC(=S)Nc2cc(OC)c(NC(C)=O)cc2OC)cc1Cl [Example 261, N-{4-[3-(5-Chloro-2,4-dimethoxy-phenyl)-thioureido]-2,5-dimethoxy-phenyl}-acetamide]	> 10 µg/mL	> 10 µg/mL	> 10 µg/mL	1%
CC(=O)Nc1ccc(NC(=S)Nc2ccc(N3CCCC3)c(Cl)c2)cc1 [Example 242, N-{4-[3-(3-Chloro-4-pyrrolidin-1-yl-phenyl)-thioureido]-phenyl}-acetamide]	> 10 µg/mL	50 µg/mL (≈ 129 µM)	> 10 µg/mL	20%
COc1cc(NC(=S)Nc2ccc(NC(C)=O)cc2)cc(OC)c1OC [Example 151, N-{4-[3-(3,4,5-Trimethoxy-phenyl)-thioureido]-phenyl}-acetamide]	40 µg/mL (≈ 107 µM)	> 50 µg/mL	> 10 µg/mL	0%
COc1ccccc1NC(=S)Nc1ccc(NC(C)=O)cc1 [Example 105, N-{4-[3-(2-Methoxy-phenyl)-thioureido]-phenyl}-acetamide]	> 50 µg/mL	> 50 µg/mL	> 10 µg/mL	32%
CC(=O)Nc1ccc(NC(=S)Nc2ccc(N(C)CCCN(C)C)c(Cl)c2)cc1 [Example 298, N-[4-(3-{3-Chloro-4-[(3-dimethylamino-propyl)-methyl-amino]-phenyl}-thioureido)-phenyl]-acetamide]	15 µg/mL (≈ 34.6 µM)	> 50 µg/mL	> 10 µg/mL	1%
COc1cc(OC)c(NC(=S)Nc2ccc(NC(C)=O)c(C(F)(F)F)c2)cc1Cl [Example 305, N-{4-[3-(5-Chloro-2,4-dimethoxy-phenyl)-thioureido]-2-trifluoromethyl-phenyl}-acetamide]	> 10 µg/mL	> 10 µg/mL	> 10 µg/mL	32%
CCOc1ccc(NC(=S)Nc2ccc(NC(C)=O)cc2)cc1Cl [Example 268, N-{4-[3-(3-Chloro-4-ethoxy-phenyl)-thioureido]-phenyl}-acetamide]	10 µg/mL (≈ 27.5 µM)	> 10 µg/mL	> 10 µg/mL	14%
